This passage reports IC50 results from patent publication US20260035387A1 (BIOGEN MA INC., priority 2022, published 2026).

Broadly, the IC50 is the concentration at which inhibition is half-maximal.

The assay has as its system mutant Huntington (HTT) protein. The assay is described as follows: HTT Mutant HTRF iPSC assay (mHTT protein lowering). It counts as cell-based. The note with it: human iPSC derived from a HTT patient with a poly-Q49 mutation. For orientation: In TR-FRET formats the signal depends on donor and acceptor labels being close together.

The compound `Cc1cn2cc(NC(=O)c3cc4cnc(N5CC[C@H](N(C)C)C5)nc4s3)nc(C)c2n1` [Compound 151, (S)-2-(3-(dimethylamino)pyrrolidin-1-yl)-N-(2,8-dimethylimidazo[1,2-a]pyrazin-6-yl)thieno[2,3-d]pyrimidine-6-carboxamide] came in with an IC50 of 1000 to 9000 nM.

In turn, `Cc1cn2cc(NC(=O)c3cc4cnc(N5CC[C@H](N(C)C)C5)nc4s3)cc(F)c2n1` [Compound 152, 2-[(3S)-3-(dimethylamino)pyrrolidin-1-yl]-N-(8-fluoro-2-methyl-imidazo[1,2-a]pyridin-6-yl)thieno[2,3-d]pyrimidine-6-carboxamide] registered an IC50 of 100 to 1000 nM.

For the compound `Cc1cn2cc(C(=O)Nc3cc4ccc(N5CC[C@H](N(C)C)C5)nc4s3)cc(F)c2n1` [Compound 153, N-[6-[(3S)-3-(dimethylamino)pyrrolidin-1-yl]thieno[2,3-b]pyridin-2-yl]-8-fluoro-2-methyl-imidazo[1,2-a]pyridine-6-carboxamide], the IC50 was < 100 nM.

`Cc1cn2cc(NC(=O)c3cc4ccc(OC5CCC(N(C)C)C5)nc4s3)cc(F)c2n1` (centres unmarked) [Compound 155, 6-((3-(dimethylamino)cyclopentyl)oxy)-N-(8-fluoro-2-methylimidazo[1,2-a]pyridin-6-yl)thieno[2,3-b]pyridine-2-carboxamide]: the IC50 was < 100 nM.

As for `Cc1cn2cc(NC(=O)c3cc4ccc(OC5C[C@@H](C)N[C@H](C)C5)nc4s3)cc(F)c2n1` (some centres unmarked) [Compound 157], the IC50 lay in the range of 100 to 1000 nM.

`Cc1cn2cc(NC(=O)c3cc4ccc(OC5CCC6(CCN(C)CC6)C5)nc4s3)cc(F)c2n1` (centres unmarked) [Compound 160, N-(8-fluoro-2-methylimidazo[1,2-a]pyridin-6-yl)-6-((8-methyl-8-azaspiro[4.5]decan-2-yl)oxy)thieno[2,3-b]pyridine-2-carboxamide] returned an IC50 of 100 to 1000 nM.

Compound `Cc1cn2cc(NC(=O)c3cc4ccc(OC5CC6(CCN(C)CC6)C5)nc4s3)cc(F)c2n1` [Compound 162, N-(8-fluoro-2-methylimidazo[1,2-a]pyridin-6-yl)-6-((7-methyl-7-azaspiro[3.5]nonan-2-yl)oxy)thieno[2,3-b]pyridine-2-carboxamide] showed an IC50 of 100 to 1000 nM.

On to `Cc1cn2cc(NC(=O)c3cc4nc(C5CCN(C)CC5)ccc4o3)cc(F)c2n1` [Compound 163, N-(8-fluoro-2-methyl-imidazo[1,2-a]pyridin-6-yl)-5-(1-methyl-4-piperidyl)furo[3,2-b]pyridine-2-carboxamide], for which the concentration for half-maximal inhibition (IC50) is 100 to 1000 nM.

Take `COc1cc2nn(C)cc2cc1NC(=O)c1cc2nc(N3CCC(N4CCC4)C3)ccc2o1` (centres unmarked) [Compound 164, 5-(3-(azetidin-1-yl)pyrrolidin-1-yl)-N-(6-methoxy-2-methyl-2H-indazol-5-yl)furo[3,2-b]pyridine-2-carboxamide]: the IC50 lay within 100 to 1000 nM.

For `Cc1cn2cc(NC(=O)c3cc4nc(N5CCN(C)CC5)ccc4o3)cc(F)c2n1` [Compound 165, N-(8-fluoro-2-methylimidazo[1,2-a]pyridin-6-yl)-5-(4-methylpiperazin-1-yl)furo[3,2-b]pyridine-2-carboxamide], the IC50 is < 100 nM.

For the compound `Cc1cn2cc(NC(=O)c3cc4nc(N5CC[C@@H](N(C)C)C5)ccc4o3)cc(F)c2n1` [Compound 166, (R)-5-(3-(dimethylamino)pyrrolidin-1-yl)-N-(8-fluoro-2-methylimidazo[1,2-a]pyridin-6-yl)furo[3,2-b]pyridine-2-carboxamide], the IC50 is < 100 nM.

Regarding `COc1cc2nn(C)cc2cc1NC(=O)c1cc2nc(N3CCC4(CCCN4C)C3)ccc2o1` (centres unmarked) [Compound 167, N-(6-methoxy-2-methyl-2H-indazol-5-yl)-5-(1-methyl-1,7-diazaspiro[4.4]nonan-7-yl)furo[3,2-b]pyridine-2-carboxamide], the IC50 was < 100 nM.

With `Cc1cn2cc(NC(=O)c3cc4nc(N5CCNCC5)ccc4o3)cc(F)c2n1` [Compound 169, N-(8-fluoro-2-methylimidazo[1,2-a]pyridin-6-yl)-5-(piperazin-1-yl)furo[3,2-b]pyridine-2-carboxamide], the half-inhibitory concentration (IC50) was < 100 nM.

For `COc1cc2nn(C)cc2cc1NC(=O)c1cc2nc(N3CCC(N(C)C)C3)ccc2o1` (centres unmarked) [Compound 170, 5-(3-(dimethylamino)pyrrolidin-1-yl)-N-(6-methoxy-2-methyl-2H-indazol-5-yl)furo[3,2-b]pyridine-2-carboxamide], the IC50 was < 100 nM.

Turning to `COc1cn2nc(C)cc2cc1NC(=O)c1cc2nc(N3C[C@@H]4CN(C)C[C@@H]43)ccc2o1` [Compound 171, N-(6-methoxy-2-methylpyrazolo[1,5-a]pyridin-5-yl)-5-((1S,5R)-3-methyl-3,6-diazabicyclo[3.2.0]heptan-6-yl)furo[3,2-b]pyridine-2-carboxamide], the IC50 fell in the range of 100 to 1000 nM.

Compound `COc1cc2nn(C)cc2cc1NC(=O)c1cc2nc(N3CC[C@@H](N4CCC4)C3)ccc2o1` [Compound 172, (R)-5-(3-(azetidin-1-yl)pyrrolidin-1-yl)-N-(6-methoxy-2-methyl-2H-indazol-5-yl)furo[3,2-b]pyridine-2-carboxamide] gave an IC50 of 100 to 1000 nM.

`COc1cc2nn(C)cc2cc1NC(=O)c1cc2nc(N3CC[C@H](N4CCC4)C3)ccc2o1` [Compound 173, (S)-5-(3-(azetidin-1-yl)pyrrolidin-1-yl)-N-(6-methoxy-2-methyl-2H-indazol-5-yl)furo[3,2-b]pyridine-2-carboxamide] had an IC50 of 100 to 1000 nM.

For `Cc1cn2cc(NC(=O)c3cc4ccc(C5CCNC(C)(C)C5)nc4s3)cc(F)c2n1` (centres unmarked) [Compound 176, 6-(2,2-dimethylpiperidin-4-yl)-N-(8-fluoro-2-methylimidazo[1,2-a]pyridin-6-yl)thieno[2,3-b]pyridine-2-carboxamide], the IC50 is < 100 nM.

Turning to `COc1cc2nn(C)cc2cc1NC(=O)c1cc2ccc(C3CCN(C)CC3)nc2s1` [Compound 178, N-(6-methoxy-2-methyl-2H-indazol-5-yl)-6-(1-methylpiperidin-4-yl)thieno[2,3-b]pyridine-2-carboxamide], the IC50 was < 100 nM.

With `Cc1cn2cc(NC(=O)c3cc4ccc(C5CNC(C)C5)nc4s3)cc(F)c2n1` (centres unmarked) [Compound 179, N-(8-fluoro-2-methylimidazo[1,2-a]pyridin-6-yl)-6-(5-methylpyrrolidin-3-yl)thieno[2,3-b]pyridine-2-carboxamide], the IC50 was < 100 nM.

Turning to `Cc1cn2cc(NC(=O)c3cc4ccc(C5CCC6(CNC6)C5)nc4s3)cc(F)c2n1` (centres unmarked) [Compound 182, N-(8-fluoro-2-methylimidazo[1,2-a]pyridin-6-yl)-6-(2-azaspiro[3.4]octan-6-yl)thieno[2,3-b]pyridine-2-carboxamide], the IC50 is 100 to 1000 nM.

With `CCN1CCN(c2ccc3cc(C(=O)Nc4cc5cc(C)nn5cc4OC)sc3n2)CC1` [Compound 183, 6-(4-ethylpiperazin-1-yl)-N-(6-methoxy-2-methylpyrazolo[1,5-a]pyridin-5-yl)thieno[2,3-b]pyridine-2-carboxamide], the IC50 is < 100 nM.

As for `COc1nc(NC(=O)c2cc3ccc(C4CCN(C)CC4)nc3s2)cn2cc(C)nc12` [Compound 184, N-(8-methoxy-2-methylimidazo[1,2-a]pyrazin-6-yl)-6-(1-methylpiperidin-4-yl)thieno[2,3-b]pyridine-2-carboxamide], the IC50 was < 100 nM.

As to `Cc1cn2cc(NC(=O)c3cc4ccc(N5C[C@@H]6C[C@H]5CN6C(C)C)nc4s3)cc(F)c2n1` [Compound 189, N-(8-fluoro-2-methylimidazo[1,2-a]pyridin-6-yl)-6-((1S,4S)-5-isopropyl-2,5-diazabicyclo[2.2.1]heptan-2-yl)thieno[2,3-b]pyridine-2-carboxamide], the IC50 is < 100 nM.

For `COc1cn2nc(C)cc2cc1NC(=O)c1cc2ccc(N3CCC(N(C)C)C3)nc2s1` (centres unmarked) [Compound 190, 6-(3-(dimethylamino)pyrrolidin-1-yl)-N-(6-methoxy-2-methylpyrazolo[1,5-a]pyridin-5-yl)thieno[2,3-b]pyridine-2-carboxamide], the IC50 was < 100 nM.

As for `COc1nc(NC(=O)c2cc3ccc(N4CCC(N(C)C)C4)nc3s2)cn2cc(C)nc12` (centres unmarked) [Compound 191, 6-(3-(dimethylamino)pyrrolidin-1-yl)-N-(8-methoxy-2-methylimidazo[1,2-a]pyrazin-6-yl)thieno[2,3-b]pyridine-2-carboxamide], the IC50 is < 100 nM.

With `CN(C)[C@@H]1CCN(c2ccc3cc(C(=O)Nc4cc(F)c5nn(C)cc5c4)sc3n2)C1` [Compound 192, (R)-6-(3-(dimethylamino)pyrrolidin-1-yl)-N-(7-fluoro-2-methyl-2H-indazol-5-yl)thieno[2,3-b]pyridine-2-carboxamide], the IC50 was < 100 nM.

Consider `Cc1cn2cc(NC(=O)c3cc4ccc(N5CCNC6(CC6)C5)nc4s3)nc(C)c2n1` [Compound 193, N-(2,8-dimethylimidazo[1,2-a]pyrazin-6-yl)-6-(4,7-diazaspiro[2.5]octan-7-yl)thieno[2,3-b]pyridine-2-carboxamide], for which the IC50 is < 100 nM.

For `[2H]C([2H])([2H])N1CCN(c2ccc3cc(C(=O)Nc4cn5cc(C)nc5c(C)n4)sc3n2)CC1` [Compound 195, N-(2,8-dimethylimidazo[1,2-a]pyrazin-6-yl)-6-(4-(methyl-d3)piperazin-1-yl)thieno[2,3-b]pyridine-2-carboxamide], the IC50 is < 100 nM.

Regarding `Cc1cn2cc(NC(=O)c3cc4ccc(N5C[C@@H]6CNC[C@@H]65)nc4s3)cc(F)c2n1` [Compound 196, 6-((1S,5R)-3,6-diazabicyclo[3.2.0]heptan-6-yl)-N-(8-fluoro-2-methylimidazo[1,2-a]pyridin-6-yl)thieno[2,3-b]pyridine-2-carboxamide], the IC50 is < 100 nM.

Consider `CNC1CN(c2ccc3cc(C(=O)Nc4cc(F)c5nc(C)cn5c4)sc3n2)C1` [Compound 197, N-(8-fluoro-2-methylimidazo[1,2-a]pyridin-6-yl)-6-(3-(methylamino)azetidin-1-yl)thieno[2,3-b]pyridine-2-carboxamide], for which the half-maximal inhibitory concentration (IC50) is < 100 nM.

Consider `Cc1cn2cc(NC(=O)c3cc4ccc(N5CCC6NCC65)nc4s3)cc(F)c2n1` (centres unmarked) [Compound 200, 6-(2,6-diazabicyclo[3.2.0]heptan-2-yl)-N-(8-fluoro-2-methylimidazo[1,2-a]pyridin-6-yl)thieno[2,3-b]pyridine-2-carboxamide], for which the IC50 is < 100 nM.
